What was measured:
Assay type in all cases: in vivo
[1] = system: Myzus persicae; experiment: Myzus persicae oral test; conditions: 120 h, read-out: activity (mortality)
How it was run: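 Percent mortality was recorded at day 5, where 0% means no aphids killed. Compound prepared from an acetone concentrate diluted in water and combined with IPL41 medium containing sugar was offered to mixed-stage green peach aphids, which sucked it through a parafilm seal.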

[2] = system: Nezara viridula; experiment: Nezara viridula spray test; conditions: in Hordeum vulgare, 96 h, barley plants, larvae, after 4 days; for mortality at 500 g/ha: application rate 500 g/ha
Description: Nezara viridula—Spray Test Solvent: 78.0 parts by weight of acetone • • 1.5 parts by weight of dimethylformamide Emulsifier: alkylarylpolyglycol ether
To produce a suitable preparation of active compound, 1 part by weight of active compound is mixed with the stated amount of solvent, and the concentrate is diluted with water, containing an emulsifier concentration of 1000 ppm, to the desired concentration. Further test concentrations are prepared by dilution with emulsifier containing water.
Barley plants (Hordeum vulgare) infested with larvae of the southern green stink bug (Nezara viridula) are sprayed with a test solution containing the desired concentration of the active ingredient.
After 4 days mortality in % is determined. 100% means all the stink bugs have been killed; 0% means none of the stink bugs have been killed.

[3] = system: Spodoptera frugiperda; experiment: Spodoptera frugiperda spray test; conditions: in Zea mays, 168 h, read-out: activity (mortality)
How it was run: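 Percent kill of fall armyworm caterpillars was assessed 7 days after infesting dried, treated maize leaf sections. Treatment was a spray of compound in acetone/dimethylformamide, diluted with water containing emulsifier at 1000 ppm.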

[4] = system: Rhipicephalus microplus; experiment: Rhipicephalus (Boophilus) microplus injection test (BOOPMI Inj); conditions: 168 h, injection into adult engorged female ticks, egg deposition after 7 days, read-out: activity (efficacy: 100% means all eggs are infertile); for pest or weed control at 0.004 mg: application rate 4 μg/tick; for pest or weed control at 0.02 mg: application rate 20 μg/tick
How it was run: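 Compound in DMSO, 1 μL, injected abdominally into five adult engorged females, which were then held in a climate chamber. Read-out is egg fertility, scored from deposition at 7 days, with unclear eggs followed to hatching (~42 days); 0% means all eggs fertile, 100% all infertile.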

[5] = system: Diabrotica balteata; experiment: Diabrotica balteata spray test; conditions: 168 h, wheat seeds, larvae, after 7 days, read-out: activity (efficacy: 100% means all seedlings have grown up like in the untreated, uninfected control); for pest or weed control at 32 µg/disc, 100 g/ha: application rate 100 g/ha (=32 μg/well); for pest or weed control at 160 µg/disc, 500 g/ha: application rate 500 g/ha (=160 μg/well)
How it was run: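 Efficacy (%) was scored 7 days after spraying, with 100% meaning growth like the untreated, uninfected control and 0% meaning no seedling grew. Spray solutions of compound in acetone/DMF with emulsifier-containing water went onto 1-day-germinated wheat seeds, and each unit was then infested with 10-20 banded cucumber beetle larvae.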

[6] = system: Rhipicephalus microplus; experiment: Rhipicephalus (Boophilus) microplus in-vitro contact test, larval cattle tick, strain Parkhurst (BOOPMI Cont); conditions: application rate 5 μg/cm^2 (=500 g/ha), tick larvae, after 48 hours, read-out: activity (efficacy: 100% means all larvae are dead or moribund)
How it was run: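 After 48 h at 27° C. and 85% humidity, percent dead or moribund larvae was scored from negative geotactic behaviour. Larvae (20-50, Parkhurst strain, synthetic pyrethroid-resistant) were exposed in tubes coated with compound from acetone, 900 ppm corresponding to 5 μg/cm^2.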

[7] = system: Ctenocephalides felis; experiment: Ctenocephalides felis oral test (CTECFE Oral); conditions: 48 h, read-out: activity (mortality)
How it was run: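 Percent mortality was recorded 2 days after roughly 20 adult Ctenocephalides felis fed on treated cattle blood. The blood was warmed to 37 °C beneath a parafilm membrane, with the fleas kept at room temperature. Compound was dissolved in DMSO and diluted into the blood to test concentration.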

[8] = system: Musca domestica strain WHO—N; experiment: Musca domestica test (MUSCDO surface treatment & contact assay); conditions: exposure 30 minutes, 24 hours after contact, read-out: efficacy (mortality); for mortality at 20 mg/m2: surface concentration 20 mg/m^2, glazed tile; for mortality at 4 mg/m2: surface concentration 4 mg/m^2, glazed tile
How it was run: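 Compound dissolved in acetone (2 mg/ml) with 2000 ppm rapeseed oil methyl ester and pipetted onto glazed tile; after acetone evaporation, adult flies exposed to dried surface for 30 minutes. Mortality (%) scored 24 hours after contact.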

[9] = system: Rhipicephalus sanguineus; experiment: Rhipicephalus sanguineus in-vitro contact test, adult brown dog ticks (RHIPSA Cont); conditions: 48 h, after 48 hours, read-out: activity (efficacy: 100% means all ticks are dead or moribund); for pest or weed control at 1 µg/cm2, 100 g/ha: application rate 1 μg/cm^2 (=100 g/ha); for pest or weed control at 5 µg/cm2, 500 g/ha: application rate 5 μg/cm^2 (=500 g/ha)
How it was run: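 Compound in acetone was coated onto the inner walls of glass tubes and dried by rotation before adult brown dog ticks were exposed. Efficacy was scored at 48 h. Ticks unable to climb away from a 45–50 °C heating plate within 5 min counted as dead or moribund.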

[10] = system: Ctenocephalides felis; experiment: Ctenocephalides felis in-vitro contact test, adult cat flea (CTECFE Cont); conditions: application rate 5 μg/cm^2 (=500 g/ha), adult cat fleas, after 48 hours, read-out: activity (efficacy: 100% means all fleas are dead or moribund)
Description: Ctenocephalides felis—In-Vitro Contact Tests Adult Cat Flea (CTECFE Cont)
9 mg compound is solved in 1 mL acetone and diluted with acetone to the desired concentration. 250 μL of the test solution is filled in 25 mL glass test tubes and homogeneously distributed on the inner walls by rotation and tilting on a shaking device (2 h at 30 rpm). With a compound concentration of 900 ppm, an inner surface of 44.7 cm^2 and a homogeneous distribution, a dose of 5 μg/cm^2 is achieved.
After the solvent has evaporated, each test tube is filled with 5-10 adult cat fleas (Ctenocephalides felis), closed with a perforated lid and incubated in a lying position at room temperature and relative humidity. After 48 hours efficacy is determined. The fleas are patted on the ground of the tubes and are incubated on a heating plate at 45-50° C. for at most 5 minutes. Immotile or uncoordinated moving fleas, which are not able to escape the heat by climbing upwards, are marked as dead or moribund.
An efficacy of 100% means all fleas are dead or moribund; 0% means no fleas are dead or moribund.

[11] = system: Aedes aegypti strain MONHEIM; experiment: Aedes aegypti test (AEDSAE surface treatment & contact assay); conditions: exposure 30 minutes, 24 hours after contact, read-out: efficacy (mortality)
How it was run: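 Compound dissolved in acetone (2 mg/ml) with 2000 ppm rapeseed oil methyl ester, pipetted onto glazed tile and dried. Adult mosquitoes exposed on the surface for 30 min; percent mortality scored 24 h after contact.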

[12] = system: Myzus persicae; experiment: Myzus persicae spray test; conditions: in Brassica rapa, foliar, 120 h, read-out: activity (mortality), application rate 100 g/ha, spray, Chinese cabbage leaf disks, after 5 days
Description: Myzus persicae—Spray Test Solvent: 78.0 parts by weight acetone • 1.5 parts by weight dimethylformamide Emulsifier: alkylarylpolyglycol ether To produce a suitable preparation of active compound, 1 part by weight of active compound is mixed with the stated amount of solvents and is diluted with water, containing an emulsifier concentration of 1000 ppm, to the desired concentration. Further test concentrations are prepared by dilution with emulsifier containing water.
Chinese cabbage (Brassica pekinensis) leaf disks infected with all instars of the green peach aphid (Myzus persicae), are sprayed with a preparation of the active ingredient of the desired concentration.
After 5 days mortality in % is determined. 100% means all aphids have been killed and 0% means none of the aphids have been killed.

| SMILES | mortality at 4 ppm [1] [%] | mortality at 500 g/ha [2] [%] | mortality at 100 g/ha [3] [%] | mortality at 500 g/ha [3] [%] | pest or weed control at 0.004 mg [4] [%] | pest or weed control at 0.02 mg [4] [%] | pest or weed control at 32 µg/disc, 100 g/ha [5] [%] | pest or weed control at 160 µg/disc, 500 g/ha [5] [%] | pest or weed control at 5 µg/cm2 [6] [%] | mortality at 100 ppm [7] [%] | mortality at 20 mg/m2 [8] [%] | mortality at 100 g/ha ([2]; application rate 100 g/ha) [%] | pest or weed control at 1 µg/cm2, 100 g/ha [9] [%] | pest or weed control at 5 µg/cm2, 500 g/ha [9] [%] | pest or weed control at 5 µg/cm2 [10] [%] | mortality at 4 mg/m2 [8] [%] | mortality at 4 mg/m2 ([11]; surface concentration 4 mg/m^2, glazed tile) [%] | mortality at 20 mg/m2 ([11]; surface concentration 20 mg/m^2, glazed tile) [%] | mortality at 100 g/ha [12] [%] |
| --- | --- | --- | --- | --- | --- | --- | --- | --- | --- | --- | --- | --- | --- | --- | --- | --- | --- | --- | --- |
| COc1nc([C@H](C)NC(=O)c2cc(C(F)(F)F)cc(C(F)(F)F)c2)n(-c2ccc(C#N)cn2)n1 [I-11] | 100 | 100 | 100 | 100 | 100 | 100 | 100 | 100 | 100 | 100 | 80 to 100 |  |  |  |  |  |  |  |  |
| CC(C)c1nc([C@H](C)NC(=O)c2cc(Cl)nc(C(F)(F)F)c2)n(-c2ccc(C#N)cn2)n1 [I-28] | 90 |  | 100 |  | 100 | 100 | 100 |  | 100 | 100 | 80 to 100 | 90 | 100 | 100 |  |  |  |  |  |
| C[C@H](NC(=O)c1cc(Cl)cc(OC(F)(F)F)c1)c1ncnn1-c1ncc(Br)s1 [II-15, N-{(1S)-1-[1-(5-bromo-1,3-thiazol-2-yl)-1H-1,2,4-triazol-5-yl]ethyl}-3-chloro-5-(trifluoromethoxy)benzamide] |  | 90 |  | 100 | 100 | 100 | 100 | 100 | 100 | 100 | 80 to 100 |  |  |  | 80 |  |  |  |  |
| C[C@H](NC(=O)c1cc(Cl)cc(OC(F)(F)F)c1)c1ncnn1-c1ncc(I)s1 [II-21] |  | 90 |  | 100 | 100 | 100 | 100 | 100 | 100 | 100 | 80 to 100 |  |  |  | 80 | 80 to 100 |  |  |  |
| C[C@H](NC(=O)c1cc(I)cc(C(F)(F)F)c1)c1ncnn1-c1ccc(C#N)cn1 [II-46] |  | 100 | 100 | 100 | 100 | 100 | 100 | 100 | 100 | 100 | 80 to 100 |  | 100 | 100 |  | 80 to 100 | 80 to 100 | 80 to 100 |  |
| C[C@H](NC(=O)c1cc(Cl)cc(C(F)(F)F)c1)c1ncnn1-c1ccc(C(=O)N(CC(F)(F)F)C2CC2)cn1 [II-70] |  | 90 | 100 | 100 | 100 | 100 | 100 | 100 | 100 |  |  |  | 100 | 100 | 100 |  |  |  |  |
| C[C@H](NC(=O)c1cc(Cl)cc(C(F)(F)F)c1)c1ncnn1-c1ccc(C(=O)N(C)CC#N)cn1 [II-72] | 100 | 100 | 100 | 100 | 100 | 100 | 100 | 100 | 100 |  |  |  | 100 | 100 | 100 |  |  |  |  |
| COCCN(C)C(=O)c1ccc(-n2nc(C)nc2[C@H](C)NC(=O)c2cc(C(F)(F)F)cc(C(F)(F)F)c2)nc1 [II-98] | 100 |  | 83 |  | 100 |  |  |  | 100 | 100 |  |  | 100 | 100 |  |  |  |  | 90 |

Reference: patent US20220274947A1, “NOVEL HETEROARYL-TRIAZOLE COMPOUNDS AS PESTICIDES” (Bayer Aktiengesellschaft, priority 2019, published 2022)
